Consider `CC(O)=C1C(=O)CC(c2ccccc2Cl)CC1=O` (stereo unspecified), for which the melting point – broadly, the temperature, or range, at which the solid turns liquid – lay within 100 to 101 °C.

Take `Nc1nc(COc2ccc(Cl)c(Cl)c2)nc2nccnc12`: the melting point was 261 to 263 °C. Next, `CC(C)(C)OC(=O)CNc1ccccc1C(=O)c1ccccc1`: 88 °C; `OCCCN1CCC(c2noc3cc(F)ccc23)CC1`: 140 to 142 °C. Under `CCCCCCCCCCCCCCCCCC(=O)Oc1cc(C(C)(C)C)c(O)c(C(C)(C)C)c1` stands 35 to 39 °C. Next, `CC(C)C[C@H](NC(=O)OCc1ccccc1)C(=O)NC(Cc1ccc(F)cc1)C(=O)CSCc1ccco1` (stereo partly specified): 101 °C; `CCCN1CC(CO)CC2c3cccc4[nH]cc(c34)CC21` (stereo unspecified): 166 to 168 °C; `COc1cc(-n2c(C#N)c3n(c2=O)CCCCC3)c(F)cc1Cl`: 144 to 146 °C. With `O=Cc1c(Cl)cccc1OC[C@H]1CO1`, the melting point was 62 to 64 °C. Under `CCCCOc1cc(CCS(=O)(=O)NC(=O)OCCC)n(Cc2ccc(Cl)cc2Cl)n1` stands 92 to 94 °C; under `O=C1Nc2ccc(I)cc2C1=NNC(=O)C1CCN(C(=O)c2ccccc2)CC1`, 160 °C. The compound `CN(C)c1cc(Oc2cccc(C(F)(F)F)c2)nc(C(=O)O)c1` showed a melting point of 61 to 66 °C. Under `O=C(Cc1ccc(Cl)c(Cl)c1)N1CCc2occc2C1CO` (stereo unspecified) stands 155 to 156 °C.

Turning to `CC(COc1ccc(-n2cncn2)cc1)(NS(=O)(=O)Cc1ccccc1)C(=O)O` (stereo unspecified), the melting point is 148 to 151 °C. Under `CCCCc1oc2ccccc2c1C(=O)c1nc(Br)c(-c2ccc(OC)cc2)o1` stands 62 to 64 °C; under `N#Cc1c2cccccc-2nc1NCCC(c1ccccc1)c1ccccc1`, 178 to 180 °C.

Turning to `COc1c(C(C)(C)C)cc(SC)cc1C(C)(C)C`, the melting point is 50 to 52 °C.

As to `CCCCN(Cc1ccccc1)CC1CCc2c(C)cc3c(c2C1=O)CCC(=O)N3` (stereo unspecified), the melting point is 190 to 193 °C. Next, `Cc1nc(-c2ccc(Cl)cc2)c(CC(=O)O)o1`: 215 to 216 °C; `COc1ccc(S(=O)(=O)c2ncccn2)cc1`: 72 °C. Next, `CC1(C)Nc2c(Cl)cccc2NC1=O`: 153 to 156 °C. As to `CC(=O)NNC(=O)c1cc2cccc(NS(=O)(=O)c3cccs3)c2[nH]1`, the melting point was 254 to 256 °C.

`O=CNNc1ccccc1NC(=S)Nc1ccccc1` had a melting point of 224 to 226 °C. Under `CSc1ccc(-c2nnc(Oc3ccc(F)cc3F)cc2-c2ccc(Cl)cc2)cc1` stands 163 to 164 °C; under `CCc1nc2cc(C#N)c(Cl)cc2n1-c1ccc(CCNC(=O)NS(=O)(=O)c2ccc(C)cc2)cc1`, 219 to 224 °C; under `COc1ccc(C(=O)Nc2ccccc2)cc1NC(=S)Nc1cccc(Cl)c1`, 165 to 168 °C. Under `CC1=C(C(=O)OC(C)(C)C)C(c2ccc(C)cc2C)C(C(=O)OC(C)(C)C)=C(C)N1` stands 197 to 198 °C. Under `COC(=O)c1ccc(C(O)c2cc3cc(C(F)(F)F)ccc3n2S(=O)(=O)c2cccc(C(C)(C)C)c2)cc1` (racemic) stands 60 °C; under `Cc1cc(OCCN2CCC(n3cnc4cccnc43)CC2)nn1-c1ccc(Cl)c(Cl)c1`, 104 to 107 °C; under `CCCc1c(OCCCCCOc2ccc3c(c2CCC)OC(C(=O)OCC)CC3=O)ccc(C(C)=O)c1O` (stereo unspecified), 80 to 81 °C.

As for `Cc1cc(-c2ccc(OC3SCC(O)C(O)C3O)c(F)n2)ccn1` (stereo unspecified), the melting point was 159 to 162 °C. Take `COC(=O)c1cc(F)c(F)c2ccc(C)nc12`: the melting point lay in the range of 99 to 101 °C. Under `CCOC(=O)c1ccc(-c2ccc(-c3cccc(OC)c3)c(-c3ccc4c(c3)C(C)(C)CCC4(C)C)c2)cc1` stands 116 to 118 °C; under `O=[N+]([O-])c1cc(F)cc2c(Cl)ccnc12`, 120 to 130 °C; under `c1cncc(-c2ccnc(Nc3cccc(-n4ccnc4)c3)n2)c1`, 95 to 120 °C. Next, `Nc1cccnc1Nc1ccccc1C(=O)c1ccc(Cl)cc1`: 145 to 146 °C. Under `OC1CSC(Oc2cncc(-c3ccc(F)cc3)c2)C(O)C1O` (stereo unspecified) stands 208 to 209 °C; under `COc1ccc(-c2c(SCc3ccncc3)oc3cc(OC)ccc3c2=O)cc1`, 140 to 141 °C; under `CCn1ccc2c(c1=O)CN=C(N1CCN(Cc3ccccc3)CC1)N2`, 200 to 203 °C. Consider `CN1CCN(C2=Nc3cc(C(F)(F)F)ccc3N3CCc4cccc2c43)CC1`, for which the melting point fell in the range of 177 to 180 °C.

The compound `CCCc1nn(-c2ccc(C(F)(F)F)cn2)cc1CCCOc1nn(C)cc1CC(=O)O` registered a melting point of 119 to 120 °C. Next, `COc1cc2c(c(OC)c1OC)COc1c(C(F)(F)F)nn(-c3ccc(S(N)(=O)=O)cc3)c1-2`: 130 °C; `CCOC(=O)CC(=O)N1C(C(=O)OC(C)(C)C)CCCN1C(=O)OCc1ccccc1` (stereo unspecified): 45 to 47 °C. Under `Cc1sc(N2C(=O)OCC2(C)C)nc1-c1ccc(C#N)cc1` stands 192 to 193 °C; under `CC(C)(C)NS(=O)(=O)c1csc2ccccc12`, 146 to 148 °C. Next, `CCCCC(C)(OC)C(O)C=CC1C(O)CC(=O)C1CCCCCCC(=O)OC` (stereo unspecified): 44 to 45 °C; `CN(C)C1CCN(C(=O)c2ccc(-c3[nH]nc4c3C(=O)c3c(NC(=O)NN5CCOCC5)cccc3-4)s2)C1` (stereo unspecified): 216 to 217 °C. In turn, `CS(=O)(=O)NC(=O)c1ccc(Cl)cc1NC(=O)c1cc(-c2ccc(Cl)cc2)oc1C(F)(F)F` came in with a melting point of 259 to 262 °C. Next, `Cc1nn(-c2cc(Oc3ccc(O)cc3)c(Cl)cc2F)c(=O)n1C(F)F`: 162 °C; `Cc1cc(-c2cc(C(F)(F)F)n3ncc(C(=O)Nc4cccc(S(=O)(=O)N5CCOCC5)c4)c3n2)ccc1C(F)(F)F`: 272 °C. Under `CCCN(CCC)[C@H]1COc2c(F)ccc(C(=O)NC)c2C1` stands 72 to 73 °C; under `CCCCOC(=O)C1C(C(C)=O)C(=O)N1C(Cc1ccc(OC)cc1)Cc1ccc(OC)cc1` (stereo unspecified), 92.5 to 94 °C. `NC(=O)c1ccc2[nH]cc(C3=CCNCC3)c2c1` came in with a melting point of 225 to 230 °C. Next, `COC(=O)NNC(=O)c1n[nH]c2cc(OC)c(OC)cc12`: 235 °C; `CC(C(=O)O)c1ccc(CC2CCCCC2O)c(Cl)c1` (stereo unspecified): 123 to 127 °C; `COC(=O)c1cc(N)c(Oc2ccccc2)c(N2C(=O)CCC2=O)c1`: 199 to 200 °C. Next, `Cc1nc2c(O[C@@H]3c4ccccc4C[C@H]3O)cc(Cl)cn2c1N` (relative stereo): 223 to 225 °C; `O=C(O)C1C=CC=CC1(F)OC(Cc1c(CCNS(=O)(=O)Cc2ccc(Cl)c(Cl)c2)[nH]c2ccc(Cl)cc12)C(c1ccccc1)c1ccccc1` (stereo unspecified): 117 to 119 °C. Next, `CCN(CC)c1ccc(C2(c3ccc(N(C)C)cc3N(C)C)OC(=O)c3c(Cl)c(Cl)c(Cl)c(Cl)c32)cc1` (stereo unspecified): 206 to 208 °C; `O=C1CN(c2c(F)cc(N3C[C@H](CNC(=S)Nc4ccccn4)OC3=O)cc2F)CN1`: 194 to 196 °C. On to `O=C1O[C@@H](CO)[C@H]2CCc3cc(O)ccc3N12` (relative stereo), for which the melting point is 250 °C. `CC(C)(C#N)c1cc(Cn2cncn2)cc(-c2ccc(OS(N)(=O)=O)cc2)c1` registered a melting point of 74 to 76 °C. Next, `Cn1c(N)cc(=O)n1-c1ccccc1`: 205 to 215 °C; `CC(CO)Nc1nc(-c2ccc(Br)cc2)cs1` (stereo unspecified): 100 to 101 °C.

Take `NS(=O)(=O)c1cc2c(s1)S(=O)(=O)CC(O)C2O` (stereo unspecified): the melting point was in the range of 182 to 185 °C. Under `CC(=O)NCCCCCC(=O)Nc1ncccc1C(=O)c1ccc(Cl)cc1` stands 117 to 119 °C; under `COc1ccc(NC(C)=O)c(O)c1C(C)=O`, 160 to 162 °C; under `CC(=O)N1CC2(CCN(C(=O)Nc3nnc(-c4ccccc4)s3)CC2)c2ccccc21`, 260 °C. `CCC(C)CNC(=O)c1cc(NC)cc(C(=O)NCC(C)CC)c1` (stereo unspecified) had a melting point of 160 to 161 °C. Next, `Cn1cnnc1COc1nn2c(-c3cc(Cl)on3)nnc2c2ccccc12`: 239 to 241 °C. Under `CC(=O)NC1(c2ccc(CN3CCN(c4ccc(F)cc4F)CC3)cc2)CC1` stands 124 to 125 °C; under `Cc1ccc2nc(C)c(CCN3CCN(c4cccc(Cl)c4)CC3)c(=O)n2c1`, 127 to 128 °C. Next, `CC(=O)O[C@H]1C[C@@H](n2ncc(Cl)c(Cl)c2=O)[C@H](O)[C@@H]1O` (racemic): 119 to 122 °C; `C(C#Cc1cccc2ccccc12)#Cc1cccc2ccccc12`: 176 to 177 °C. `COc1ccc(NC(=S)NCC(OC)OC)cc1`: the melting point is 215 to 217 °C. Under `COc1nc2ccccc2cc1NC(=O)N1CCN(c2cccc3ccccc23)CC1` stands 158 to 160 °C; under `C[C@H]1[C@@H](O)[C@H](Cc2ccccc2)C(=O)N1c1ccc(C#N)c(Cl)c1`, 99 to 101 °C. Next, `COc1cc(-c2cc(C(F)(F)F)nn2-c2ccc(S(N)(=O)=O)cc2)ccc1-c1cocn1`: 143 to 145 °C; `COc1cc2c(=O)n(NS(C)(=O)=O)c(=O)[nH]c2cc1[N+](=O)[O-]`: more than 280 °C; `C=CCOn1c(=O)c2cc(F)c(F)cc2n(Cc2ccccc2)c1=O`: 130 to 132 °C. Under `O=C(NCCCl)NC1OC(CO)C(O)C1O` (stereo unspecified) stands 166 to 168 °C; under `O=C(Nc1ccncc1)Nc1c(Cl)cccc1Cl`, 217 to 219 °C. `CC1=C(c2ccc(CC(C)NCC(O)c3cccc(Cl)c3)cc2)CCC(=O)N1` (stereo unspecified) gave a melting point of 103 to 106 °C. The compound `COc1cc(-c2nc(NC(=O)c3cc4cc(C)ccc4n3CC(=O)O)sc2CCC2CCCCC2)c(OC)cc1Cl` displayed a melting point of 204 to 208 °C. Next, `CCCO[C@@H](Cc1ccc(OCCc2nc(-c3ccc(-c4ccccc4)cc3)oc2C)c2ccccc12)C(=O)O`: 151 to 154 °C; `CCCCCCCCCCN1C(=O)C2CC(c3ccc(N)cc3)(C2)C1=O`: 81.5 to 82.5 °C.

The record behind these values is a melting point compilation (Tetko et al.; mined from patent text by program, amines drawn as free bases though some values may be those of a salt).
